Several values for one entry are separate records, joined by “and”; a condition that tells them apart may be missing. Equal values may be shown once.
System: farnesyl transferase (FTase)
Assay: Cytosolic Ras assay for measurement of farnesyl transferase activity (RAS Cell Assay)
Format: cell-based, African green monkey
Settings: COS-7 cells, 24 hr treatment in 0.2% DMSO; cytosolic Ras by Western blot, Ras/actin ratio
From the text: Ras is a small GTP binding protein whose farnesylation and consequent membrane association can be reduced by inhibition of farnesyl transferase (Appels et al., Oncologist 10:565-578, 2005; Basso et al., J. Lipid Res. 47:15-31, 2006; Tamanoi, Trends Biochem. Sci. 18:349-353, 1993; each of which is incorporated herein by reference). […] Treatment with a compound of the invention reduces the farnesylation and membrane association of Ras, leading to accumulation of Ras in the cytosol of the cells. An assay was developed to monitor FTase activity, based on the amount of Ras present in the cytosolic fraction of COS-7 cells after FTI treatment. On day 0, COS-7 cells were passaged into 6-well plates at a density of 4×10^5 cells/well. Beginning on day 1, cells were treated with a compound of the invention in 0.2% DMSO for 24 hr. On day 2, cells were lysed by passage through a 25 gauge needle 10 times in 100 μl Buffer 1 (50 mM Tris, 140 mM NaCl, 2 mM EDTA, protease inhibitor cocktail, pH 7.4) and lysates were centrifuged at 16,000 g for 30 min to isolate the cytosolic fraction (supernatant). The cytosolic fraction was analyzed by Western blot using anti-Ras antibody and anti-actin antibody for loading control. Results were quantified based on densitometric analysis of Ras signal normalized to actin signal (Ras/actin ratio). Treatment with a compound of the invention increases the amount of Ras in the cytosolic fraction in a dose-dependent manner. Using this method, compounds of the invention were analyzed for their ability to inhibit FTase activity, in that an increase in the Ras/actin ratio indicates inhibition of FTase.

IC50	Compound
300 nM	C#Cc1cccc(-c2cc(=O)n(C)c3ncc([C@@](O)(c4ccc(Cl)cc4)c4cncn4C)cc23)c1 [Compound 4a]
0.57 nM and 0.54 nM	C#Cc1cccc(-c2cc(=O)n(C)c3ncc([C@](O)(c4ccc(Cl)cc4)c4cncn4C)cc23)c1 [Compound 4b]
3.9 nM and 2 nM	COc1cccc(-c2cc(=O)n(C)c3ncc([C@](N)(c4ccc(Cl)cc4)c4cncn4C)cc23)c1 [Compound 5a, 6-(amino(4-chlorophenyl)(1-methyl-1H-imidazol-5-yl)methyl)-4-(3-methoxyphenyl)-1-methyl-1,8-naphthyridin-2(1H)-one]
300 nM	COc1cccc(-c2cc(=O)n(C)c3ncc([C@@](N)(c4ccc(Cl)cc4)c4cncn4C)cc23)c1 [Compound 5b, 6-(amino(4-chlorophenyl)(1-methyl-1H-imidazol-5-yl)methyl)-4-(3-methoxyphenyl)-1-methyl-1,8-naphthyridin-2(1H)-one]
2.3 nM and 4.2 nM	COc1cccc(-c2cc(=O)n(C)c3ncc([C@](O)(c4ccc(Cl)cc4)c4cncn4C)cc23)c1 [Compound 6a, 6-((4-chlorophenyl)(hydroxy)(1-methyl-1H-imidazol-5-yl)methyl)-4-(3-methoxyphenyl)-1-methyl-1,8-naphthyridin-2(1H)-one]
190 nM	COc1cccc(-c2cc(=O)n(C)c3ncc([C@@](O)(c4ccc(Cl)cc4)c4cncn4C)cc23)c1 [Compound 6b, 6-((4-chlorophenyl)(hydroxy)(1-methyl-1H-imidazol-5-yl)methyl)-4-(3-methoxyphenyl)-1-methyl-1,8-naphthyridin-2(1H)-one]
